The record followed here is US20080306070A1, “Combination Therapy Comprising Substituted Oxazolidinones for the Prevention and Treatment of Cerebral Circulatory Disorders” (BAYER HEALTHCARE AG, priority 2005, published 2008).

For data set [1], the system named is thrombus formation in an arteriovenous shunt. Put plainly: Arteriovenous shunt model (rat), antithrombotic effect. It is filed as in vivo. To be noted: oral administration, read-out: ED50 [mg/kg] p.o. As for the experimental part:
Fasting male rats (strain: HSD CPB:WU) weighing 200-250 g were anesthetized with a Rompun/Ketavet solution (12 mg/kg/50 mg/kg). Thrombus formation was induced in an arteriovenous shunt by a method based on that described by Christopher N. Berry et al., Br. J. Pharmacol. (1994), 113, 1209-1214. For this purpose, the left jugular vein and the right carotid artery were exposed. An extracorporeal shunt was formed between the two vessels using a 10 cm-long polyethylene tube (PE 60). This polyethylene tube was secured in the middle by tying in a further 3 cm-long polyethylene tube (PE 160) which contained a roughened nylon thread forming a loop to produce a thrombogenic surface. The extracorporeal circulation was maintained for 15 minutes. The shunt was then removed and the nylon thread with the thrombus was immediately weighed. The blank weight of the nylon thread had been found before the start of the experiment. The test substances were administered either intravenously through the tail vein or orally by gavage to conscious animals before setting up the extracorporeal circulation.

SMILES strings stand for the structures.

Take `O=C(NC[C@H]1CN(c2ccc(N3CCOCC3=O)cc2)C(=O)O1)c1ccc(Cl)s1` [Example 44, 5-Chloro-N-({(5S)-2-oxo-3-[4-(3-oxo-4-morpholinyl)phenyl]-1,3-oxazolidin-5-yl}methyl)-2-thiophenecarboxamide]: the ED50 in data set [1] stood at 3 mg/kg.

In general, melting point refers to the temperature of the solid-liquid transition. In turn, `O=C(NC[C@H]1CN(c2ccc(N3CCCOC3=O)cc2)C(=O)O1)c1ccc(Cl)s1` [Example 255] gave a melting point of 228 to 230 °C.
